Measurements as given in patent publication US10925858B2, “S-nitrosoglutathione (GSNO) and GSNO reductase inhibitors for use in therapy” (MUSC FOUNDATION FOR RESEARCH DEVELOPMENT, priority 2017, dated 2021).

Assays:
hBMVECs = test: Assay of trans-endothelial electrical resistance (TEER) in thrombin treated hBMVECs; assay type: cell-based, human; conditions: thrombin 0.1 unit/ml; GSNO 100 μM or SIN-1 500 μM pretreated 2 hr
Description: Cell culture: Primary human brain microvascular endothelial cells (hBMVECs) were purchased from Angio-Proteomie (Cat #: cAP-0002, Atlanta, Ga.). The cells were cultured in cell culture flasks or plates precoated with Quick Coating Solution (Angio-Proteomie; Cat #: cAP-01) and maintained in Endothelial Growth Medium (Angio-Proteomie; Cat #: cAP-02) at 37° C. under 5% CO2/95% air. When the cells were almost confluent, the medium was replaced with endothelial basal medium (Angio-Proteomie; Cat #: cAP-03) containing 0.5% fetal bovine serum (FBS; Life Technologies, Grand Island, N.Y.) about 8-12 hours before the experiment. No institutional approval was required for this study. The study was not pre-registered. For evaluation of the endothelial barrier function, hBMVECs were plated on fibronectin-coated polycarbonate filters (Transwell system, Corning, Midland, N.C.) containing Endothelial Growth Medium (Angio-Proteomie Cat #: cAP-02). The medium was renewed every other day. Five days after seeding, the medium was replaced with Endothelial Basal Medium (Angio-Proteomie Cat #: cAP-03) containing 0.5% FBS and incubated for 2 days. Following drug treatments, transendothelial electrical resistance (TEER) was measured by EVOM2 (Word Precision Instruments) as described previously (Li et al., 2006).

[1] = tested on: IFN-γ, IL-4, IL-17, IL-10; test: ELISA of CD4+ T cell subset specific cytokines in culture media of CNS derived lymphocytes of EAE mice; assay type: in vivo, C57BL/6 mice; conditions: N6022 1 mg/kg/day
Description: Female C57BL/6 mice of 8-12 weeks of age, purchased from Jackson Laboratory, were provided with food and water ad libitum and were kept in pathogen free animal care facility of Medical University of South Carolina (MUSC) throughout the study. All procedures were conducted in accordance with accepted standards of humane care as approved by the Institutional Animal Care and Use Committee (Approved number: AR #1644). EAE was induced as described previously (Nath et al., 2009). Briefly, mice were immunized subcutaneously in the flank regions with MOG35-55 peptide (MOG; 200 μg; Peptide International) emulsified (1:1) in 100 ul complete Freund's adjuvant (CFA) on day 0 and day 7. Additionally, 300 ng of Pertussis toxin (Sigma-Aldrich, St. Louis, Mo.) was given on day 0 and day 2 by i.p. injection. Pertussis toxin used as per the standardized protocol reported by us and other investigators for the induction of EAE (Nath et al., 2009). Similarly, healthy control group received subcutaneous injection of PBS and CFA emulsion on day 0 and day 7. Clinical signs of EAE were scored by examiners blinded to experimental treatments using the following scale: 0=no clinical signs of disease; 1=piloerection and sluggish; 2=limp tail (ataxia); 2.5=ataxia with partial hind limb paralysis; 3=full paralysis of hind limb; 3.5=full paralysis of hind limb with paralysis of one fore limb; 4=full paralysis of two limbs; 4.5=moribund stage; 5=death. […] The drug treatments were continued till the termination of the study (day 41 post immunization). EAE animals without drug treatment received PBS. Likewise, healthy controls received vehicle.
Fluorescence flow cytometry analysis for each subset of CD4+ T cells (TH1, TH2, TH17, CD4+CD25+ FOXP3+ Treg, and CD4+CD25+ FOXP3− Treg) were performed based on our previous report with modification (Nath et al., 2004). Briefly, control mice, EAE mice. EAE mice treated with GSNO. […] Following the preparation of single cell suspension, red blood cells were lysed with Pharma lyse buffer (BD Pharmingen™) and the remaining spleen cells were washed with RPMI 1640. The isolated CD4+ T cells were then resuspended with complete RPMI-media in 12-well plates (5×10^6 cells' 2 ml per well) containing MOG peptide (25 μg/ml) for 48 hrs. […] The cell pellets were washed with cell staining solution (ebioscience, Waltham, Mass. USA) and stained with fluorescence labeled antibody specific to IFN-γ for TH1. […] The cells were counted and analyzed using Beackman Coulter instrument (Beckman Coulter, Inc., Brea, Calif., USA).
ELISA assay was performed for analysis of CD4+ T cell subset specific cytokines released from cultured cells or spinal cord tissues. […] The equal amounts of proteins were analyzed for ELISA for IFN-γ. […]

SMILES | thrombin-induced loss of TEER (hBMVECs) | IFN-γ in culture media of CNS derived lymphocytes [1] | IL-4 release of CNS derived lymphocytes [1] | IL-17 in culture media of CNS derived lymphocytes [1] | IL-10 expression of CNS derived lymphocytes ([1]; vs control levels)
N[C@@H](CCC(=O)N[C@@H](CSN=O)C(=O)NCC(=O)O)C(=O)O [GSNO, S-nitrosoglutathione] | inhibited | – | – | – | –
Cc1cc(C(N)=O)ccc1-n1c(CCC(=O)O)ccc1-c1ccc(-n2ccnc2)cc1 [N6022, reference compound] | – | decreased | increased | decreased | increased
